In assay [1] the target is T1, intrinsic renin contained in the renatured human plasma (Homo sapiens, UniProt P00797).
T1 construct: intrinsic renin contained in the renatured plasma; tissue Ortho Bi-Level Plasma Renin Control; host or cells: human plasma (lyophilized, renatured in water)
T1 sequence (P00797 67-406): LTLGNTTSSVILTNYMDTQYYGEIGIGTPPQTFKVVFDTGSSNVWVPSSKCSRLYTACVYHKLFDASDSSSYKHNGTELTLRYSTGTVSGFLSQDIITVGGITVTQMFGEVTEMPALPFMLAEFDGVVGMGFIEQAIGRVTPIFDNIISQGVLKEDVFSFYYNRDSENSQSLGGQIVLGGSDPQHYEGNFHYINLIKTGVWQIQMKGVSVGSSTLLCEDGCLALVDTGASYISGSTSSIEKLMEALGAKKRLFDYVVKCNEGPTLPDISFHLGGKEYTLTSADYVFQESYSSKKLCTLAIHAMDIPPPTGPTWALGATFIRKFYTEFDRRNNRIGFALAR
Description: Renin inhibition in vitro (angiotensin I production in renatured human plasma, RIA). Format: biochemical. The note with it: 60 minutes incubation, read-out: IC50 (concentration which inhibits renin activity by 50%). The method, then: Commercially available lyophilized human plasma (Ortho, Bi-Level Plasma Renin Control) was renatured by dissolving in water. Angiotensinogen was allowed to react with intrinsic renin contained in the renatured plasma to generate angiotensin I (AI), which was quantitatively measured with radioimmunoassay (RIA). Thus, potency of the plasma renin was determined on the basis of the AI production. For this purpose, Renin RIA kit (RENIN' RIABEAD®) manufacture by Dinabott was used. All of the reagents necessary for the measurement of the AI production were available from the attachment of the kit, and the measurement was conducted according to the manufacturer's direction.
To the plasma (0.2 ml) were added all of the reagents, and the mixture was combined with either of sample solutions (0.002 ml) of various concentrations which had been prepared by dissolving a test compound in different amount of ethanol. Ethanol (0.002 ml) containing no test compound was used as a control solution. The amount of AI produced was measured after 60 minutes incubation. Renin inhibition potency of test compound was determined by comparing the amount of AI produced by a sample solution with that produced by a control solution.

Another assay concerns the target T2, Plasma renin activity (Macaca fascicularis, UniProt Q6DLS0).
T2 construct: Two milliliters of blood was collected from femoral vein; from tissue; host or cells: plasma of cynomolgus monkeys made hyperreninemic by low sodium diet and furosemide
T2 sequence (Q6DLS0 67-406): T1 sequence (P00797 67-406) with T2A, I148L, S169A
The assay can be described thus: Renin inhibition in vivo (plasma renin activity after oral administration to hyperrenin monkeys). The note with it: low sodium diet + furosemide; for Renin inhibition potency, 4 h: 4 h after administration; for Renin inhibition potency, 8 h: 8 h after administration. Also on record: species or system Crab-eating monkeys (Cynomolgus monkeys). The method, then: Crab-eating monkeys (Cynomolgus monkeys) (2.8-5.0 kg) were fed on low sodium diet (Na 7.15 mg/100 g feed) for six days, during which the monkeys intramuscularly received furosemide (2 mg/kg body weight) every other day from the second day of the experiment, in order to make the monkeys hyperrenin condition.
After seven days from the low sodium feeding, the monkeys were restrained on a monkey chair. Compounds to be tested are dissolved in 0.1 M citric acid/physiological saline or suspended in water with addition of β-cyclodextrin, and orally administered to the monkeys using a stomach probe (15 mg/kg body weight). […] For the blood collection, an injection syringe containing 30 μl of 6% aqueous EDTA·2Na solution was used. The collected blood was transferred into a test tube and centrifuged (3000 rpm, 10 minutes) at 4° C., and the resultant supernatant was used to determine the renin content. Plasma renin activity (AI(ng)/ml/h value) was measured using Radioimmunoassy kit commercially available from Dinabott Co. in the same manner as in the foregoing in vitro test. Renin inhibition potencies of the compounds tested, which were expressed as a percentage of renin activity relative to the activity before the administration, are listed in Table 12.

Structures are written as SMILES. Numbering of substitutions follows the chain as printed.

Regarding `O=C(C[C@H](O)[C@H](CC1CCCCC1)NC(=O)[C@H](Cc1cscn1)NC(=O)[C@@H](CC(=O)N1CCOCC1)Cc1cccc2ccccc12)NCCN1CCOCC1` [ES-6864, reference compound], the IC50 in assay [1] was found to be 3.75 nM.
For the compound `CC(C)(C)S(=O)(=O)C[C@@H](Cc1ccccc1)C(=O)N[C@@H](Cc1c[nH]cn1)C(=O)N[C@@H](CC1CCCCC1)[C@@H](O)CC(=O)c1ccncc1` [Example 1, 3-t-Butylsulfonyl-2(S)-phenylmethylpropionyl-His-1(S)-cyclohexylmethyl-2(S)-hydroxy-4-oxo-4-(4-pyridyl)butylamide], in assay [1], the IC50 was 6.09 nM. Moreover, at Plasma renin activity (30 mg/kg orally), the “Renin inhibition potency, Max” value came out at 33%; the “Renin inhibition potency, Mean” value is recorded as 22%; the “Renin inhibition potency, 4 h” value is listed as 22%.
For the compound `COc1ccc(C(=O)C[C@H](O)[C@H](CC2CCCCC2)NC(=O)[C@H](Cc2c[nH]cn2)NC(=O)[C@H](Cc2ccccc2)CS(=O)(=O)C(C)(C)C)cc1` [Example 22], the IC50 in assay [1] stood at 39.2 nM.
Still for that read-out and setting: next, `CC(C)S(=O)(=O)C[C@@H](Cc1ccccc1)C(=O)N[C@@H](Cc1c[nH]cn1)C(=O)N[C@@H](CC1CCCCC1)[C@@H](O)CC(=O)c1ccccc1` [Example 37]: 14.5 nM.
Same read-out and setting: next, `CCS(=O)(=O)C[C@@H](Cc1ccccc1)C(=O)N[C@@H](Cc1c[nH]cn1)C(=O)N[C@@H](CC1CCCCC1)[C@@H](O)CC(=O)c1ccccc1` [Example 38]: 39.2 nM.
With `O=C(C[C@H](O)[C@H](CC1CCCCC1)NC(=O)[C@H](Cc1c[nH]cn1)NC(=O)[C@@H](CC(=O)N1CCOCC1)Cc1cccc2ccccc12)c1ccccc1` [Example 40], the IC50 in assay [1] came to 18.1 nM. For the same compound, on Plasma renin activity (15 mg/kg orally), the “Renin inhibition potency, Max” value is 44%; the “Renin inhibition potency, Mean” value is 30%; the “Renin inhibition potency, 4 h” value amounted to 44%.
For the compound `O=C(C[C@H](O)[C@H](CC1CCCCC1)NC(=O)[C@H](Cc1c[nH]cn1)NC(=O)[C@@H](CC(=O)N1CCOCC1)Cc1cccc2ccccc12)c1ccncc1` [Example 42], the IC50 in assay [1] is 13 nM.
With `O=C(N[C@@H](CC1CCCCC1)[C@@H](O)CNS(=O)(=O)N1CCOCC1)[C@H](Cc1cscn1)NC(=O)[C@H](Cc1ccccc1)NS(=O)(=O)N1CCOCC1` [Example 53], the IC50 in assay [1] was 0.36 nM. At Plasma renin activity (15 mg/kg orally), the “Renin inhibition potency, Max” value came to 96%; the “Renin inhibition potency, Mean” value was determined as 85%; the “Renin inhibition potency, 4 h” value was 94%; the “Renin inhibition potency, 8 h” value is given as 73%.
On the same counts, the results for `CN(C)S(=O)(=O)NCC(O)C(CC1CCCCC1)NC(=O)C(Cc1cscn1)NC(=O)C(Cc1ccccc1)NS(=O)(=O)N1CCOCC1` (centres unmarked) [Example 56] are 0.7 nM, 93%, 72%, 82% and 85%.
For `CC(C)(C)S(=O)(=O)C[C@@H](Cc1ccccc1)C(=O)N[C@@H](Cc1cscn1)C(=O)N[C@@H](CC1CCCCC1)[C@@H](O)CNS(=O)(=O)c1ccccc1` [Example 62], the IC50 in assay [1] came to 1.24 nM.
The same measure, in the same setting: with `CC(C)(C)S(=O)(=O)CC(Cc1ccccc1)C(=O)NC(Cc1cscn1)C(=O)NC(CC1CCCCC1)C(O)CNS(C)(=O)=O` (centres unmarked) [Example 69] the figure was 0.53 nM; with `CC(C)OC(=O)C(O)C(CC1CCCCC1)NC(=O)[C@H](Cc1cnc[nH]1)NC(=O)[C@@H](CC(=O)N1CCOCC1)Cc1cccc2ccccc12` (some centres unmarked) [KRI-1314, reference compound], 21.3 nM.

Values taken from patent US5272268A, “Dipeptide derivatives” (Shionogi & Co., Ltd., priority 1990, dated 1993).
